Measured values reported in ChEMBL document CHEMBL4819087, “Identification and optimization of 3-bromo-N'-(4-hydroxybenzylidene)-4-methylbenzohydrazide derivatives as mTOR inhibitors that induce autophagic cell death and apoptosis in triple-negative breast cancer” (Eur J Med Chem, 2021).
Active and inactive are the calls of the source. No cut-off for these calls is given here.

Columns and labels:
[1] = target: T1, Serine/threonine-protein kinase mTOR (Homo sapiens, UniProt P42345); test: Inhibition of mTOR (unknown origin)
[2] = target: T1, Serine/threonine-protein kinase mTOR; test: Inhibition of mTOR in human MDA-MB-231 cells assessed as reduction in phosphorylation of mTOR at Ser2448 residue at 0.5 to 2 uM after 24 hrs by Western blot analysis; assay type: cell-based; details: dose 0.5-2 µM
[3] = target: T1, Serine/threonine-protein kinase mTOR; test: Inhibition of mTOR in human MDA-MB-468 cells assessed as reduction in phosphorylation of mTOR at Ser2448 residue at 0.5 to 2 uM after 24 hrs by Western blot analysis; assay type: cell-based; details: dose 0.5-2 µM
[4] = target: T1, Serine/threonine-protein kinase mTOR; test: Inhibition of mTOR in human MDA-MB-231 cells assessed as reduction in AKT protein level at 0.5 to 2 uM after 24 hrs by Western blot analysis; assay type: cell-based; details: dose 0.5-2 µM
[5] = target: T1, Serine/threonine-protein kinase mTOR; test: Inhibition of mTOR in human MDA-MB-468 cells assessed as reduction in total 4EBP1 protein level at 0.5 to 2 uM after 24 hrs by Western blot analysis; assay type: cell-based; details: dose 0.5-2 µM
[6] = target: T1, Serine/threonine-protein kinase mTOR; test: Inhibition of mTOR in human MDA-MB-468 cells assessed as reduction in AKT protein level at 0.5 to 2 uM after 24 hrs by Western blot analysis; assay type: cell-based; details: dose 0.5-2 µM
[7] = target: T1, Serine/threonine-protein kinase mTOR; test: Inhibition of mTOR in human MDA-MB-231 cells assessed as reduction in p-AKT(Ser473) protein level at 0.5 to 2 uM after 24 hrs by Western blot analysis; assay type: cell-based; details: dose 0.5-2 µM
[8] = target: T1, Serine/threonine-protein kinase mTOR; test: Inhibition of mTOR in human MDA-MB-231 cells assessed as reduction in p70S6K(Thr389) protein level at 0.5 to 2 uM after 24 hrs by Western blot analysis; assay type: cell-based; details: dose 0.5-2 µM
[9] = target: T1, Serine/threonine-protein kinase mTOR; test: Inhibition of mTOR in human MDA-MB-468 cells assessed as reduction in p-4EBP1(Thr37/46) protein level at 0.5 to 2 uM after 24 hrs by Western blot analysis; assay type: cell-based; details: dose 0.5-2 µM
[10] = target: T1, Serine/threonine-protein kinase mTOR; test: Inhibition of mTOR in human MDA-MB-468 cells assessed as reduction in p70S6K(Thr389) protein level at 0.5 to 2 uM after 24 hrs by Western blot analysis; assay type: cell-based; details: dose 0.5-2 µM
MDA-MB-231 [11] = test: Antiproliferative activity against human MDA-MB-231 cells measured after 24 hrs by Hoechst 33258 dye based fluorescence microscopic analysis; assay type: functional, cell-based; details: dose 2.5-10 µM
MDA-MB-231 [12] = test: Induction of apoptosis in human MDA-MB-231 cells assessed as viable cells at 2.5 uM after 24 hrs by AnnexinV-FITC/PI staining based flow cytometry analysis (reference value: 96.45%); assay type: functional; details: read-out: Activity
MDA-MB-231 [13] = test: Induction of apoptosis in human MDA-MB-231 cells assessed as late apoptotic cells at 2.5 uM after 24 hrs by AnnexinV-FITC/PI staining based flow cytometry analysis (reference value: 0.84%); assay type: functional
MDA-MB-231 [14] = test: Induction of apoptosis in human MDA-MB-231 cells assessed as necrotic cells at 2.5 uM after 24 hrs by AnnexinV-FITC/PI staining based flow cytometry analysis (reference value: 0.083%); assay type: functional
MDA-MB-231 [15] = test: Induction of apoptosis in human MDA-MB-231 cells assessed as viable cells at 5 uM after 24 hrs by AnnexinV-FITC/PI staining based flow cytometry analysis (reference value: 96.45%); assay type: functional; details: read-out: Activity
MDA-MB-231 [16] = test: Induction of apoptosis in human MDA-MB-231 cells assessed as early apoptotic cells at 5 uM after 24 hrs by AnnexinV-FITC/PI staining based flow cytometry analysis (reference value: 2.63%); assay type: functional
MDA-MB-468 [17] = test: Induction of apoptosis in human MDA-MB-468 cells assessed as viable cells at 2.5 uM after 24 hrs by AnnexinV-FITC/PI staining based flow cytometry analysis (reference value: 95.1%); assay type: functional; details: read-out: Activity
MDA-MB-468 [18] = test: Induction of apoptosis in human MDA-MB-468 cells assessed as necrotic cells at 2.5 uM after 24 hrs by AnnexinV-FITC/PI staining based flow cytometry analysis (reference value: 1.56%); assay type: functional
MDA-MB-468 [19] = test: Induction of apoptosis in human MDA-MB-468 cells assessed as early apoptic cells at 5 uM after 24 hrs by AnnexinV-FITC/PI staining based flow cytometry analysis (reference value: 0.51%); assay type: functional
MDA-MB-468 [20] = test: Induction of apoptosis in human MDA-MB-468 cells assessed as viable cells at 10 uM after 24 hrs by AnnexinV-FITC/PI staining based flow cytometry analysis (reference value: 95.1 to 96.3%); assay type: functional; details: read-out: Activity
MDA-MB-468 [21] = test: Induction of apoptosis in human MDA-MB-468 cells assessed as late apoptic cells at 10 uM after 24 hrs by AnnexinV-FITC/PI staining based flow cytometry analysis (reference value: 0.87 to 2.84%); assay type: functional
MDA-MB-231 [22] = test: Induction of apoptosis in human MDA-MB-231 cells assessed as increase in cleaved caspase 3 level at 2.5 to 10 uM incubated for 24 hrs by western blot analysis; assay type: functional, cell-based; details: dose 2.5-10 µM
MDA-MB-231 [23] = test: Induction of autophagy in human MDA-MB-231 cells expressing mRFP-EGFP-LC3B at 5 uM measured after 24 hrs by fluorescence microscopic analysis; assay type: functional, cell-based
MDA-MB-231 [24] = test: Induction of autophagy in human MDA-MB-231 cells assessed as increase in LC3-II protein level at 2.5 to 10 uM incubated for 24 hrs by Western blot analysis; assay type: functional, cell-based; details: dose 2.5-10 µM
MDA-MB-231 [25] = test: Antiproliferative activity against human MDA-MB-231 cells assessed as inhibition of cell viability at 5 uM preincubated with autophagy inhibitor, 3-methyladenine for 1 hr followed by compound addition and measured after 24 hrs by MTT assay; assay type: functional, cell-based
MDA-MB-468 [26] = test: Antiproliferative activity against human MDA-MB-468 cells assessed as inhibition of cell viability at 5 uM preincubated with autophagy inhibitor, 3-methyladenine for 1 hr followed by compound addition and measured after 24 hrs by MTT assay; assay type: functional, cell-based
MDA-MB-231 [27] = test: Inhibition of colony formation in human MDA-MB-231 cells at 10 uM incubated for 14 days in presence of autophagy inhibitor, 3-methyladenine by crystal violet staining based analysis; assay type: functional, cell-based; details: time 14.0 day
MDA-MB-231 [28] = test: Induction of apoptosis in human MDA-MB-231 cells assessed as early apoptotic cells at 10 uM pretreated with autophagy inhibitor, 3-methyladenine for 1 hr followed by incubation with compound and measured after 24 hrs by Annexin V-FITC/propidium iodide staining based flow cytometry (reference value: 3.81%); assay type: functional; set-up: scale not given: the % may be the effect or the level left
MDA-MB-468 [29] = test: Induction of apoptosis in human MDA-MB-468 cells assessed as early apoptotic cells at 10 uM pretreated for 1 hr with autophagy inhibitor, 3-methyladenine followed by incubation with compound and measured after 24 hrs by Annexin V-FITC/propidium iodide staining based flow cytometry (reference value: 4.08%); assay type: functional; set-up: scale not given: the % may be the effect or the level left
MDA-MB-468 [30] = test: Induction of apoptosis in human MDA-MB-468 cells assessed as late apoptotic cells at 10 uM pretreated for 1 hr with autophagy inhibitor, 3-methyladenine followed by incubation with compound and measured after 24 hrs by Annexin V-FITC/propidium iodide staining based flow cytometry (reference value: 1.94%); assay type: functional; set-up: scale not given: the % may be the effect or the level left
MDA-MB-231 [31] = test: Induction of apoptosis in human MDA-MB-231 cells assessed as viable cells at 10 uM pretreated with autophagy inhibitor, 3-methyladenine for 1 hr followed by incubation with compound and measured after 24 hrs by Annexin V-FITC/propidium iodide staining based flow cytometry (reference value: 92.7%); assay type: functional; details: read-out: Activity
A549 = test: cells; details: Homo sapiens, A549, 24 h
Description: Antiproliferative activity against human A549 cells assessed as reduction in cell viability incubated for 24 hrs by MTT assay

C/C(=N\NC(=O)c1cccc(Br)c1)c1ccc(C(=O)Nc2nc3ccccc3[nH]2)cc1
IC50 [1]: 0.304 µM
inhibition [2]: Active
inhibition [3]: Active
inhibition [4]: Active
inhibition [5]: Active
inhibition [6]: Active
inhibition [7]: Active
inhibition [8]: Active
inhibition [9]: Active
inhibition [10]: Active
Activity (MDA-MB-231 [11]): Dose-Dependent Effect
viability at 2.5 µM (MDA-MB-231 [12]): 90.1%
Activity (MDA-MB-231 [13]): 2.96%
Activity (MDA-MB-231 [14]): 0.076%
viability at 5 µM (MDA-MB-231 [15]): 87.1%
Activity (MDA-MB-231 [16]): 10.5%
viability at 2.5 µM (MDA-MB-468 [17]): 89.8%
Activity (MDA-MB-468 [18]): 1.89%
Activity (MDA-MB-468 [19]): 5.57%
viability at 10 µM (MDA-MB-468 [20]): 60.5%
Activity (MDA-MB-468 [21]): 12.3%
Activity (MDA-MB-231 [22]): Active
Activity (MDA-MB-231 [23]): Active
Activity (MDA-MB-231 [24]): Active
Activity (MDA-MB-231 [25]): Active
Activity (MDA-MB-468 [26]): Active
inhibition (MDA-MB-231 [27]): Active
Activity (MDA-MB-231 [28]): 6.1%
Activity (MDA-MB-468 [29]): 7.07%
Activity (MDA-MB-468 [30]): 8.98%
viability at 10 µM (MDA-MB-231 [31]): 86.3%
IC50 (A549): 6.48 µM
